The values that follow are results of earlier work, collected in PMC6644309 (ACS Omega, 2018).

≈ marks a conversion by molar mass, not a printed value.

The conditions of data set [1]: in vivo.
Experiment in data set [2]: not given
This is another data set of the same source.

`CCCc1nc2c(C)cc(-c3nc4ccccc4n3C)cc2n1Cc1ccc(-c2ccccc2C(=O)O)cc1` [TLM, 2-[4-[[4-methyl-6-(1-methylbenzimidazol-2-yl)-2-propylbenzimidazol-1-yl]methyl]phenyl]benzoic acid]: the bioavailability in data set [1] was 42–58%. The solubility in water (in water) was 0.09 µg/mL (≈ 0.175 µM). Moreover, the “solubility at pH 3–7 (in words)” value (pH 3–7, physiological pH) is listed as “practically insoluble”. In data set [2], the “pKa, benzimidazole (basic) group, first” value is recorded as 4.1; the “pKa, benzimidazole (basic) group, second” value is on record as 6.0; the “pKa, carboxylic (acidic) group” value was 3.5.
